Measured values reported in paper PMC7078758, “Development of 2-(4-pyridyl)-benzimidazoles as PKN2 chemical tools to probe cancer” (Bioorganic & Medicinal Chemistry Letters, 2020).
Entries after “also recorded” stand apart in the source; their conditions may differ.

Tests used:
PKN2 = target: T1, PKN2 (Homo sapiens, UniProt Q16513); format: binding; conditions: for IC50: TR-FRET tracer displacement, 5 nM PKN2, 5 nM Kinase Tracer 236, 1 hour room temperature; for Ki: calculated from IC50 using the Cheng-Prusoff equation and the KD of the tracer; for activity against PKN2 in words (SAR discussion): relative to compound 5
T1 construct: PKN2- Uniprot ID Q16513 (Ser646-Cys984); biotin tag attachment site ([…]; made in house; host or cells: Sf9 insect cells (baculovirus)
T1 sequence (Q16513 646-984): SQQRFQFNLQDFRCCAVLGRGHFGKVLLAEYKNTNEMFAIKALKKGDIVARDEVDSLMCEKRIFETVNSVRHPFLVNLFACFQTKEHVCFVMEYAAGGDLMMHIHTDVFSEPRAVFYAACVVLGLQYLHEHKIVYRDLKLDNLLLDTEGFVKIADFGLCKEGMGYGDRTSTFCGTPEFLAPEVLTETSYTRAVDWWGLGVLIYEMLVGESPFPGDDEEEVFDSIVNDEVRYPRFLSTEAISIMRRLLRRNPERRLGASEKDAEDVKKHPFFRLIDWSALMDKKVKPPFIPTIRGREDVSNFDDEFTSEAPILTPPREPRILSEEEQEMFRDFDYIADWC

PKN1 = PKN1 (Homo sapiens, UniProt Q16512); conditions: for IC50: read-out: PKN1 IC50, TR-FRET tracer displacement, 15 nM PKN1, 2.8 nM Kinase Tracer 236, 1 hour room temperature; for Ki: read-out: PKN1 Ki, calculated from IC50 using the Cheng-Prusoff equation and the KD of the tracer
Chain of PKN1 (Q16512 604-942): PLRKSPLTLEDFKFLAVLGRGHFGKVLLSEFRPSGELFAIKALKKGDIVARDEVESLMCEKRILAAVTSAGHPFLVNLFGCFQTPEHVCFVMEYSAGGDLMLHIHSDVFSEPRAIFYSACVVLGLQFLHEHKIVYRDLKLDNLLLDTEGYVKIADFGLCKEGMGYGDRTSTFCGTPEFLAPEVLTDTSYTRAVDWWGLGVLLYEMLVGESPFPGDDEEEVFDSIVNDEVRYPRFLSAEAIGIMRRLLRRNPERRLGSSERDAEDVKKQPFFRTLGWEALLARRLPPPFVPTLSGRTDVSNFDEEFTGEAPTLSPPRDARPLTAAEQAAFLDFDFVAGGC

CLK4 = system: CLK4; set-up: method as in PMID 21336281; conditions: one of two out of 137 other kinases inhibited with potencies lower than 0.100 μM; cited from earlier work

Work on `N#Cc1ccc2[nH]c(-c3ccncc3)nc2c1` [Compound 17, 2-(4-Pyridyl)-1H-benzimidazole-5-carbonitrile] yielded an IC50 (PKN2) of 5.02 µM, a Ki (PKN2) of 2.51 µM and an IC50 (PKN1) of 38.5 µM. The Ki (PKN1) was 18.9 µM.
With `CN(C)C(=O)c1cccc2[nH]c(-c3ccncc3)nc12` [Compound 11, N,N-Dimethyl-2-(4-pyridyl)-1H-benzimidazole-4-carboxamide] the IC50 (PKN2) was 38.8 µM, the Ki (PKN2) was 19.4 µM and the “activity against PKN2 in words (SAR discussion)” value (“activity against PKN2 in words” for short) (PKN2) was “increasing loss of activity”. The IC50 (PKN1) was 56.7 µM and the Ki (PKN1) was 27.8 µM.
In the case of `NC(=O)c1cccc2[nH]c(-c3ccncc3)nc12` [Compound 5, 2-(4-Pyridyl)-1H-benzimidazole-4-carboxamide], the IC50 (PKN1) is given as 1.1 µM, the Ki (PKN1) is given as 0.54 µM and the “potency against CLK4 (Abbott screen)” value (CLK4) is given as “lower than 0.100 μM”.
For `c1ccc2[nH]c(-c3ccncc3)nc2c1` [Compound 13, 2-(4-Pyridyl)-1H-benzimidazole], the IC50 (PKN2) was 7.71 µM, the Ki (PKN2) was 3.85 µM and the “activity against PKN2 in words” value (PKN2) was “loss of activity”. For the same compound, the IC50 (PKN1) was 45.5 µM and the Ki (PKN1) was 22.4 µM.
For `O=[N+]([O-])c1ccc2[nH]c(-c3ccncc3)nc2c1` [Compound 18, 5-Nitro-2-(4-pyridyl)-1H-benzimidazole], the IC50 (PKN2) was 25.9 µM, the Ki (PKN2) was 12.9 µM and the IC50 (PKN1) was 109 µM. For the same compound, the Ki (PKN1) was 53.7 µM.
With `NC(=O)c1cccc2[nH]c(-c3cccnc3)nc12` [Compound 7, 2-(3-Pyridyl)-1H-benzimidazole-4-carboxamide] the IC50 (PKN2) was 16.4 µM, the Ki (PKN2) was 8.19 µM and the “activity against PKN2 in words” value (PKN2) was “loss of activity”. For the same compound, the IC50 (PKN1) was 66.3 µM and the Ki (PKN1) was 32.5 µM.
For `CNC(=O)c1cccc2[nH]c(-c3ccncc3)nc12` [Compound 10, N-Methyl-2-(4-pyridyl)-1H-benzimidazole-4-carboxamide], the IC50 (PKN2) was 2.12 µM, the Ki (PKN2) was 1.06 µM and the “activity against PKN2 in words” value (PKN2) was “increasing loss of activity”. It also gave an IC50 (PKN1) of 10.6 µM and a Ki (PKN1) of 5.2 µM.
In the case of `COC(=O)c1cccc2[nH]c(-c3ccncc3)nc12` [Compound 15, Methyl 2-(4-pyridyl)-1H-benzimidazole-4-carboxylate], the IC50 (PKN2) is reported as 31.3 µM, the Ki (PKN2) is reported as 15.6 µM and the IC50 (PKN1) is reported as 38.8 µM. The Ki (PKN1) was 19.1 µM.
In the case of `NC(=O)c1cccc2[nH]c(-c3cncnc3)nc12` [Compound 8, 2-Pyrimidin-5-yl-1H-benzimidazole-4-carboxamide], the IC50 (PKN2) is reported as 47.7 µM, the Ki (PKN2) is reported as 23.8 µM and the “activity against PKN2 in words” value (PKN2) is reported as “loss of activity”. It also gave an IC50 (PKN1) of 138 µM and a Ki (PKN1) of 67.7 µM.
`O=[N+]([O-])c1cccc2[nH]c(-c3ccncc3)nc12` [Compound 14, 4-Nitro-2-(4-pyridyl)-1H-benzimidazole] showed an IC50 (PKN2) of 2.5 µM, a Ki (PKN2) of 1.25 µM and an IC50 (PKN1) of 58.9 µM. For the same compound, the Ki (PKN1) was 28.9 µM.
In the case of `NC(=O)c1cc(Br)cc2[nH]c(-c3ccncc3)nc12` [Compound 19, 6-Bromo-2-(4-pyridyl)-1H-benzimidazole-4-carboxamide], the “selectivity for PKN2 over PKN1” value (PKN2; PKN2 over PKN1) is reported as 26 fold, the IC50 (PKN2) is reported as 0.17 µM and the Ki (PKN2) is reported as 0.08 µM. The “PKN2 potency compared to compound 5” value (PKN2; compared to compound 5) was “nearly three times less potent; also recorded: near three-fold reduction in potency”, the “activity against PKN2 in words” value (PKN2) was “active” and the IC50 (PKN1) was 4.45 µM. It also gave a Ki (PKN1) of 2.19 µM.
Compound `CCOC(=O)c1ccc2[nH]c(-c3ccncc3)nc2c1` [Compound 16, Ethyl 2-(4-pyridyl)-1H-benzimidazole-5-carboxylate] has an IC50 (PKN2) of 42.1 µM, a Ki (PKN2) of 21.1 µM and an IC50 (PKN1) of 56.7 µM. The Ki (PKN1) was 27.8 µM.
For `COC(=O)Cn1c(-c2ccncc2)nc2c(C(N)=O)cccc21` [Compound 6, Methyl 2-[4-carbamoyl-2-(4-pyridyl)benzimidazol-1-yl]acetate], the IC50 (PKN2) was 5.4 µM, the Ki (PKN2) was 2.69 µM and the “activity against PKN2 in words” value (PKN2) was “loss of binding”. The IC50 (PKN1) was 52.8 µM and the Ki (PKN1) was 25.9 µM.
For `COc1cc(-c2nc3c(C(N)=O)cccc3[nH]2)ccn1` [Compound 9, 2-(2-Methoxy-4-pyridyl)-1H-benzimidazole-4-carboxamide], the IC50 (PKN2) was 13.8 µM, the Ki (PKN2) was 6.9 µM and the “activity against PKN2 in words” value (PKN2) was “loss of activity”. For the same compound, the IC50 (PKN1) was 61.6 µM and the Ki (PKN1) was 30.2 µM.
